From PubChem BioAssay (NCI)
Where “and” joins values, the source holds several entries; their conditions need not be identical. Identical values can stand only once.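 Dose response: 5 concentrations. Exposure: 48 h. Format: 96-well plates. Endpoint: linear interpolation; highest concentration if not reached. Abbreviation: GI50, concentration required for 50% inhibition of growth. TGI denotes the concentration required for complete inhibition of growth.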

Columns and labels:
Test in all cases: NCI-60 cell line screen, 48 h
[1] = test system: A549 NSCLC
[2] = test system: ACHN renal
[3] = test system: CCRF-CEM leukemia
[4] = test system: HOP-92 NSCLC
[5] = test system: HT29 colon
[6] = test system: K-562 leukemia
[7] = test system: RPMI-8226 leukemia
[8] = test system: SK-MEL-5 melanoma
[9] = test system: SN12C renal
[10] = test system: SW-620 colon

With `Cc1ccc(SSCC(O)C(O)CSSc2ccc(C)cc2)cc1` (configuration not stated) the TGI [1] was 35.9 µM and 26.4 µM, the TGI [2] was 23.6 µM and 29.3 µM and the TGI [3] was 4.08 µM. For the same compound, the TGI [4] was 26 µM and 31.4 µM, the TGI [5] was 27.8 µM and 49.8 µM and the GI50 [6] was 4.84 µM and 15.3 µM. The TGI [6] was 28.3 µM and 46.8 µM, the TGI [7] was 12.8 µM and 22 µM and the TGI [8] was 25.6 µM and 19.9 µM. The GI50 [9] was 4.74 µM and 10.5 µM, the TGI [9] was 17.3 µM and 23.2 µM and the TGI [10] was 20.2 µM and 27.2 µM.

Compound `COC(=O)c1onc(C2OC(C)(C)OC2C(O)COC(c2ccccc2)(c2ccccc2)c2ccccc2)c1C(=O)OC` (configuration not stated) has a TGI [1] of over 100 µM, a TGI [2] of over 100 µM and a TGI [3] of over 100 µM. For the same compound, the TGI [4] was over 100 µM, the TGI [5] was over 100 µM and the TGI [6] was over 100 µM. The TGI [7] was over 100 µM, the TGI [8] was over 100 µM and the TGI [9] was over 100 µM. It also gave a TGI [10] of over 100 µM.

For `Cc1ccc2oc(=O)c3c(O)c4cccc(OC5OC(C)C6O[C@@H](c7ccccc7)OC6C5OC5OC(C)C(O)C(O)C5O)c4c4oc(=O)c1c2c34` (some centres not stated), the GI50 [1] was 0.0214 µM, the TGI [1] was 0.521 µM and 0.924 µM and the GI50 [2] was 0.0559 µM. The TGI [2] was 1.14 µM and 0.439 µM, the TGI [3] was 0.365 µM and 0.363 µM and the GI50 [4] was 0.333 µM. The TGI [4] was 2.22 µM and 2.13 µM, the TGI [5] was 5.12 µM and the GI50 [6] was 0.0708 µM. The TGI [6] was 2.6 µM, the TGI [7] was 0.888 µM and the GI50 [8] was 0.114 µM. The TGI [8] was 1.09 µM and 0.7 µM, the GI50 [9] was 0.251 µM and the TGI [9] was 1.76 µM and 4.73 µM. The TGI [10] was 2.43 µM and 7.53 µM.

With `CC(C)=Cc1cc(CCC/C(C)=C/Cc2c(O)cc(C)c(C(=O)O)c2O)co1` the TGI [1] was over 100 µM, the TGI [2] was over 100 µM and the TGI [3] was over 100 µM. The TGI [4] was over 100 µM, the TGI [5] was over 100 µM and the TGI [6] was over 100 µM. It also gave a TGI [7] of over 100 µM, a TGI [8] of over 100 µM and a TGI [9] of over 100 µM. It also gave a TGI [10] of over 100 µM.

`CCCCCCC(=O)C/C(CCC(=O)N(Cc1ccccc1)Cc1ccccc1)=N\NC(N)=O` gave a TGI [1] of over 100 µM, a TGI [2] of over 100 µM and a TGI [3] of over 100 µM. The TGI [4] was over 100 µM, the TGI [5] was over 100 µM and the TGI [6] was over 100 µM. For the same compound, the TGI [7] was over 100 µM, the TGI [8] was over 100 µM and the TGI [9] was over 100 µM. For the same compound, the TGI [10] was over 100 µM.

Compound `CCc1ccc2oc(=O)ccc2c1` has a TGI [1] of over 100 µM, a TGI [2] of over 100 µM and a TGI [3] of over 100 µM. For the same compound, the TGI [4] was over 100 µM, the TGI [5] was over 100 µM and the TGI [6] was over 100 µM. The TGI [7] was over 100 µM, the TGI [8] was over 100 µM and the TGI [9] was over 100 µM. The TGI [10] was over 100 µM.

In the case of `CCC[CH2][Sn]([CH2]CCC)([CH2]CCC)/[C](=C/[Si](C)(C)c1ccccc1)c1ccc2c(c1)OCO2`, the GI50 [1] is reported as 25.2 µM, the TGI [1] is reported as 82.9 µM and the GI50 [2] is reported as 18.4 µM. The TGI [2] was 36.2 µM, the GI50 [3] was 12 µM and the TGI [3] was 73.2 µM. For the same compound, the GI50 [4] was 11.4 µM, the TGI [4] was 29.4 µM and the GI50 [5] was 19.2 µM. For the same compound, the TGI [5] was 55.3 µM, the GI50 [6] was 22.9 µM and the TGI [6] was 73.9 µM. The GI50 [7] was 20.7 µM, the TGI [7] was 77.8 µM and the GI50 [8] was 15.8 µM. It also gave a TGI [8] of 30.1 µM, a GI50 [9] of 19.1 µM and a TGI [9] of 39 µM. The GI50 [10] was 20.9 µM and the TGI [10] was 59.3 µM.

For `O=C1OCC2=C1C(c1cccc(C(F)(F)F)c1)c1cc3c(cc1N2CCO)OCCO3` (configuration not stated), the GI50 [1] was 1.53 µM, the TGI [1] was over 33.3 µM and the GI50 [2] was 2.83 µM. It also gave a TGI [2] of over 33.3 µM, a GI50 [3] of 1.5 µM and a TGI [3] of over 33.3 µM. It also gave a GI50 [4] of 2.7 µM, a TGI [4] of over 33.3 µM and a GI50 [5] of 1.09 µM. The TGI [5] was over 33.3 µM, the GI50 [6] was 0.881 µM and the TGI [6] was over 33.3 µM. It also gave a GI50 [7] of 1.39 µM, a TGI [7] of over 33.3 µM and a GI50 [8] of 0.997 µM. It also gave a TGI [8] of 6.97 µM, a GI50 [9] of 2.21 µM and a TGI [9] of over 33.3 µM. The GI50 [10] was 1.24 µM and the TGI [10] was over 33.3 µM.

Work on `CN1CCN(C(=O)c2ccc(NC(=O)Nc3ccc(-c4nc(N5CCOCC5)c5cccn5n4)cc3)cc2)CC1` yielded a GI50 [1] of 0.0606 µM, a TGI [1] of 12.1 µM and a GI50 [2] of 0.279 µM. For the same compound, the TGI [2] was 12.8 µM, the GI50 [3] was 0.0473 µM and the TGI [3] was 5.67 µM. For the same compound, the GI50 [4] was 0.0193 µM, the TGI [4] was 0.0759 µM and the GI50 [5] was 0.0487 µM. For the same compound, the GI50 [6] was 0.0963 µM, the TGI [6] was 14.7 µM and the GI50 [7] was 0.287 µM. The TGI [7] was 2.02 µM, the GI50 [8] was 0.0803 µM and the TGI [8] was 0.394 µM. The GI50 [9] was 0.0331 µM, the TGI [9] was 11.8 µM and the GI50 [10] was 0.0634 µM. It also gave a TGI [10] of 12.1 µM.

Compound `CC1CCCC(C#N)(NOC2=NCCN2)C1` (configuration not stated) has a GI50 [1] of 63.4 µM, a TGI [1] of over 100 µM and a GI50 [2] of 18.9 µM. The TGI [2] was 46 µM, the GI50 [3] was 53.8 µM and the TGI [3] was over 100 µM. The GI50 [4] was 36.5 µM, the TGI [4] was 75.1 µM and the GI50 [5] was 92.2 µM. It also gave a TGI [5] of over 100 µM, a GI50 [6] of 17.4 µM and a TGI [6] of 61.5 µM. For the same compound, the GI50 [7] was 38 µM, the TGI [7] was over 100 µM and the GI50 [8] was 14.9 µM. It also gave a TGI [8] of 34.2 µM, a GI50 [9] of 26.5 µM and a TGI [9] of over 100 µM. For the same compound, the GI50 [10] was 36.3 µM and the TGI [10] was over 100 µM.

`O=C1NC(=O)C(c2cccc(Cl)c2)=C1Nc1ccc(Cl)c(C(=O)O)c1` was tested, and the GI50 [1] was over 25 µM, the TGI [1] was over 25 µM and the GI50 [2] was over 25 µM. The TGI [2] was over 25 µM, the GI50 [3] was over 25 µM and the TGI [3] was over 25 µM. The GI50 [4] was over 25 µM, the TGI [4] was over 25 µM and the GI50 [5] was over 25 µM. For the same compound, the TGI [5] was over 25 µM, the GI50 [6] was over 25 µM and the TGI [6] was over 25 µM. It also gave a GI50 [7] of over 25 µM, a TGI [7] of over 25 µM and a GI50 [8] of over 25 µM. For the same compound, the TGI [8] was over 25 µM, the GI50 [9] was over 25 µM and the TGI [9] was over 25 µM. It also gave a GI50 [10] of over 25 µM and a TGI [10] of over 25 µM.

`C=CCC12CC(=O)CCC1c1ccc(OC)cc1C2=O` (configuration not stated) gave a TGI [1] of over 100 µM, a TGI [2] of over 100 µM and a TGI [3] of over 100 µM. For the same compound, the TGI [4] was over 100 µM, the TGI [5] was over 100 µM and the TGI [6] was over 100 µM. The TGI [7] was over 100 µM, the TGI [8] was over 100 µM and the TGI [9] was over 100 µM. The TGI [10] was over 100 µM.

`Cc1ccccc1-n1c(=S)[nH]c2c(sc(=O)n2-c2ccccc2C)c1=O` was tested, and the TGI [1] was over 100 µM, the TGI [2] was over 100 µM and the TGI [3] was over 100 µM. The TGI [4] was over 100 µM, the TGI [5] was over 100 µM and the TGI [6] was over 100 µM. For the same compound, the TGI [7] was over 100 µM, the TGI [8] was over 100 µM and the TGI [9] was over 100 µM. The TGI [10] was over 100 µM.

`CCN1CCN(c2cc(C(=O)Nc3cccc(Nc4ccc5c(OC)cccc5n4)c3)cc(C(F)(F)F)c2)CC1` showed a GI50 [1] of 1.05 µM, a TGI [1] of 5.28 µM and a GI50 [2] of 1.21 µM. It also gave a TGI [2] of 4.97 µM, a GI50 [3] of 0.758 µM and a TGI [3] of 2.06 µM. It also gave a GI50 [4] of 1.26 µM, a TGI [4] of 4.66 µM and a GI50 [5] of 0.572 µM. It also gave a TGI [5] of 1.21 µM, a GI50 [6] of 0.91 µM and a TGI [6] of 2.77 µM. It also gave a GI50 [7] of 1.2 µM, a TGI [7] of 5.32 µM and a GI50 [8] of 1.55 µM. The TGI [8] was 5.54 µM, the GI50 [9] was 1.4 µM and the TGI [9] was 5.57 µM. For the same compound, the GI50 [10] was 3.67 µM and the TGI [10] was 8.77 µM.

In the case of `O=c1cc[nH]cc1-c1c[nH]ccc1=O`, the TGI [1] is reported as over 100 µM, the TGI [2] is reported as over 100 µM and the TGI [3] is reported as over 100 µM. For the same compound, the TGI [4] was over 100 µM, the TGI [5] was over 100 µM and the TGI [6] was over 100 µM. For the same compound, the TGI [7] was over 100 µM, the TGI [8] was over 100 µM and the TGI [9] was over 100 µM. It also gave a TGI [10] of over 100 µM.
